Publication PMC10233092, “Selective Janus kinase 1 inhibition resolves inflammation and restores hair growth offering a viable treatment option for alopecia areata” (Skin Health and Disease, 2023)
≈ marks a conversion by molar mass, not a printed value. Where “and” joins values, the source holds several entries; their conditions need not be identical. Equal entries are not always repeated.

Key:
IL‐4, STAT6‐Luc = assay: IL-4-induced JAK-STAT6-luciferase assay in U937 monocytes; assay type: cell-based; details: Homo sapiens, U-937, interleukin at EC80
IL‐13, STAT6‐Luc = assay: IL-13-induced JAK-STAT6-luciferase assay in U937 monocytes; assay type: cell-based; details: Homo sapiens, U-937, interleukin at EC80
[1] = Solubility in phosphate buffer; assay type: physicochemical; details: pH 7.4, aqueous buffer
Source text: TABLE 1 In vitro potency and selectivity of JAK inhibitors | column: Solubility (μM) ^c

AA mice = tested on: AA mice; set-up: method as in PMID 25129481; details: 12 weeks of treatment, 3 months follow up; cited from earlier work
[2] = tested on: Human Peripheral Blood Mononuclear Cells (PBMCs); assay: Cytokine release from anti-CD3-stimulated human PBMCs; assay type: cell-based; details: during stimulation with anti‐CD3, 40–48 h
Experimental: Human Peripheral Blood Mononuclear Cells (PBMCs) were isolated by Sepmate technique (Stemcell Technologies) from heparinized venous blood from healthy volunteers. Primary human CD8^+ T‐cells were further isolated using a CD8^+ T cell Isolation Kit according to protocol (Miltenyi Biotec). Experiments were approved by the local ethical committee in Gothenburg (033‐11).
Soluble anti‐CD28 were added to the CD8^+ cultures to facilitate co‐stimulation. After 40–48 h, supernatants were harvested for mediator analysis and the cells were washed and resuspended in RLT buffer (Qiagen) for RNA isolation.
Analysis of human cytokine panels was carried out using a Luminex assay kit from Merck Millipore (Cat# HCYTMAG‐60K‐PX41) and Mesoscale Discovery (MSD) immunoassay kits (Cat# K211AEB‐2 and K15049D) as recommended in the respective supplier protocols.

[3] = Plasma and skin exposure in treated AA mice; details: 3% cream topically, one hour after application

IC50 (IL‐4, STAT6‐Luc) [nM]	IC50 (IL‐13, STAT6‐Luc) [nM]	solubility [1] [µM]	unbound plasma exposure over IC50 [3]	SMILES	remission after treatment (AA mice)	release of IL‐1RA from PBMCs [2]
110	82	678 (≈ 208 µg/mL)	–	N#CC[C@H](C1CCCC1)n1cc(-c2ncnc3[nH]ccc23)cn1 [Ruxolitinib, reference compound]	induced stable remission	dramatically increased
–	–	> 1000	3–7 fold IC50 and 5 fold IC50	C[C@@H]1CCN(C(=O)CC#N)C[C@@H]1N(C)c1ncnc2[nH]ccc12 [Tofacitinib, reference compound]	induced stable remission	dramatically increased
